“Also recorded” adds a separate entry of the source.
Key:
[1] = test system: ATF4, ATF6, ERN1/XBP1 and cell cycle regulated genes; assay: mRNA expression profiling by QPCR in NHLF, HCT-116, HAP1 and SU-DHL-2; type: cell-based, human; details: 5 μM, 8 hrs
Protocol: FIG. 11 is a graph of expression of ATF4, ATF6, Xbp1, and cell cycle regulated genes in Compound A197 responsive cell lines. All cells were treated with 5 […] Compound A197 for 8 hrs, then RNA was isolated and specific gene expression determined by qPCR. All data are represented as Log2 Fc. *=p<0.05, n=3.
ATF4-mediated gene expression profile is induced by compounds. ATF4 activation is closely aligned with activation of ER stress and the related TF's ATF6, ERN1 and XBP1. To determine the role of each transcription factor, a set of fifteen genes were selected to evaluate the specificity of the response as related ATF4 and to other transcription factors. […] These genes can be regulated in a variety of ways and so reflect an outcome of compound action: cell cycle arrest.
Four cell lines were chosen for gene expression profiling. Normal Human Lung Fibroblasts were chosen as an example of a non-responsive cell line. The colorectal cancer cell line HCT-116 and the chronic myelogenous leukemia line HAP1 were chosen as examples of cell lines responsive to compound undergoing growth arrest. The diffuse large B-Cell lymphoma line SU-DHL-2 was chosen as a cell line undergoing growth arrest and apoptosis. […] RNA recovery is determined using a NanoDrop nucleic acid quantification device. […] The change in gene expression relative to vehicle is calculated using Expression Analysis software (ThermoFisher).

NHLF = assay: Apoptosis, 72 hr: NHLF; type: cell-based, human
Autophagy = assay: High content imaging screen: autophagy (LC3 cleavage, autophagic granules); type: cell-based
Protocol: (§1) Mechanism of Action Screens A series of broad high content imaging, transcriptomic, metabolomic, and CRISPR KO screens were performed to link Compound A197 activity to a probable method of action. The outcome of these screens included two notable observations.

Oxidative Stress = assay: High content imaging screen: oxidative stress (ROS); type: cell-based
Protocol: as §1

Cytoskeletal = assay: High content imaging screen: cytoskeletal; type: cell-based; details: actin or microtubule localization or structure
Protocol: as §1

BJAB = assay: Cell proliferation, Cell-Titre Glo, 72 hours: BJAB; type: cell-based; details: Homo sapiens, mean ± std. dev.
Protocol: (§2) NHLF, BJAB, SU-DHL-2, and HCT-116 cells were treated with Compound A197 for 4 hours prior to lysate harvest. Total cellular glutathione (GSH) levels were determined using a luminescent endpoint (GSH-Glo, Promega). Cell proliferation was determined using Cell-Titre Glo following 72 hours of compound treatment. All data shown is mean±SD of three biological replicates.

SU-DHL-2 [2] = assay: Cell proliferation, Cell-Titre Glo, 72 hours: SU-DHL-2; type: cell-based; details: Homo sapiens, mean ± std. dev.
Protocol: as §2

HCT-116 xenograft = assay: Human tumor xenograft model, colorectal cancer cell line HCT-116; type: in vivo
Protocol: (§3) FIG. 10 is a set of graphs of in vivo treatment results for Athymic Nude mice engrafted with the DLBCL line SU-DHL-10 (left panel) or the CRC line HCT-116 (right panel). After 14 days, groups of mice (n=10 per group) were randomized by tumor volume and treated with Compound B19 (left panel) or Compound A197 (right panel). All animals dosed p.o. q.d. (orally once per day). Tumor burden was measured over 21 days. Compound B19 efficacy was monitored for 21 days following last dose to determine relapse. All data plotted as the mean±SEM, n=10 mice per group.
(§4) The positive results of the PK studies led to an evaluation of Compound A197 and Compound B19 in murine xenograft models of human tumors. Compound A197 was tested in a human tumor xenograft model using KRAS mutated colorectal cancer cell line HCT-116. Athymic nude mice (HSD:Athymic Nude-Foxn1 nu, Envigo) were inoculated subcutaneously with 5×10^6 HCT-116 cells in the right rear flank. The animals wethen staged and randomized by tumor size to achieve dose groups of 10 animals each with an average tumor volume of 150 mm^3. Tumor bearing mice were dosed once daily by oral gavage with a vehicle (5% NMP, 15% PEG400, 10% Solutol, and 70% D5W) or with A197 dissolved in vehicle to provide a dose concentration of 10 ml/kg. Compound B19 was tested in a human xenograft model using the human diffuse large B-cell lymphoma line SU-DHL-10 (ATCC). […]

Metabolites = assay: Metabolomic screen; type: cell-based; details: GSH, ATP/AMP ratio, isocitrate and aconitate
Protocol: as §1

Cell cycle = assay: High content imaging screen: cell cycle; type: cell-based
Protocol: as §1

SU-DHL-2 [3] = assay: Apoptosis, 72 hr: SU-DHL-2; type: cell-based, human
HCT-116 [4] = assay: Cell proliferation, Cell-Titre Glo, 72 hours: HCT-116; type: cell-based; details: Homo sapiens, mean ± std. dev.
Protocol: as §2

HCT-116 [5] = assay: Total cellular GSH levels (GSH-Glo): HCT-116; type: cell-based, human; details: 4 hrs, mean ± std. dev.
Protocol: as §2

HCT-116 [6] = assay: Apoptosis, 72 hr: HCT-116; type: cell-based, human
SU-DHL-10 xenograft = assay: Human xenograft model, diffuse large B-cell lymphoma line SU-DHL-10; type: in vivo, SCID beige mice; details: once daily oral gavage, p<0.01 for 10 and 30 mpk doses
Protocol: as §3, §4

Cc1nn(-c2nc(-c3ccc(C(F)(F)F)cc3)c(SC(C)C)s2)c(C(=O)O)c1-c1cccc(F)c1 [Compound A197, 4-(3-fluorophenyl)-1-(5-(isopropylthio)-4-(4-(trifluoromethyl)phenyl)thiazol-2-yl)-3-methyl-1H-pyrazole-5-carboxylic acid]
CDKN1A (p21/Waf1) mRNA expression [1]: increased
induction of ATF4, ATF6 or IRE1/Xbp1 regulated genes ([1]; HCT-116, HAP-1, SU-DHL-2, NHLF): preferentially induces ATF4, but not ATF6 or IRE1/Xbp1 regulated genes in three responsive tumor cell lines (HCT-116, HAP-1 and SU-DHL-2) but not in primary NHLF
Apoptosis, 72 hr (NHLF): No
Outcome: Autophagy (Autophagy): No detectable LC3 cleavage; no formation of
Outcome: Oxidative Stress (Oxidative Stress): No production of ROS
Outcome: Cytoskeletal (Cytoskeletal): No obvious changes in actin or microtubule localization
IC50 (BJAB): 295 ± 110 nM
IC50 (SU-DHL-2 [2]): 180 ± 60 nM
tumor growth in the solid tumor model (HCT-116 xenograft; HCT-116 xenograft, once daily oral gavage, 21 days, p<01 for 75 and 30 mpk doses): significantly slower growth
tolerability, signs of toxicity (HCT-116 xenograft; markers of liver function, metabolism, and myelopoiesis, tumor bearing mice (data not shown)): well-tolerated with no overt signs of toxicity
Outcome: Metabolites (Metabolites): induced specific alterations in redox (decreased GSH), energy (decrease in ATP/AMP ratio), and TCA cycle intermediates (decreased isocitrate/aconitate) in tumor cells but not NHLF; also recorded: Decrease in total GSH levels; decrease in ATP/AMP
Outcome: Cell cycle (Cell cycle): G1 arrest associated with TP53 independent CDKN1A
Apoptosis, 72 hr (SU-DHL-2 [3]): Yes
IC50 (HCT-116 [4]): 530 ± 210 nM
GSH % Max reduction (HCT-116 [5]): 43 ± 9%
IC50 (HCT-116 [5]; Homo sapiens, read-out: GSH IC50 (Abs)): 360 ± 720 nM
Apoptosis, 72 hr (HCT-116 [6]): No

COC(=O)c1c(-c2cccc(F)c2)c(C)nn1-c1nc(C2=CCC(C(F)(F)F)CC2)c(SC(C)C)s1 (single isomer, unassigned) [Compound B19, methyl 4-(3-fluorophenyl)-1-(5-(isopropylthio)-4-(4-(trifluoromethyl)cyclohex-1-en-1-yl)thiazol-2-yl)-3-methyl-1H-pyrazole-5-carboxylate]
regression in DLBCL tumors (SU-DHL-10 xenograft): dose-dependent and durable regression in DLBCL tumors by day 21

Source: patent US20210278408A1, “METHODS OF TREATMENT OF CANCER WITH SUBSTITUTED PYRROLE AND PYRAZOLE COMPOUNDS AND DIAGNOSIS OF CANCERS SUSCEPTIBLE TO TREATMENT WITH SUBSTITUTED PYRROLE AND PYRAZOLE COMPOUNDS” (Bantam Pharmaceutical, LLC, priority 2018, published 2021)
